Laboratory results reported in patent publication US10927123B2, “Modulators of the beta-3 adrenergic receptor useful for the treatment or prevention of disorders related thereto” (Arena Pharmaceuticals, Inc., priority 2016, dated 2021).
pIC50: −log10 of the molar value.

Each molecule was assayed against Beta-3 Adrenergic Receptor (Homo sapiens (Human), UniProt P13945) (assay: HTRF cAMP antagonist assay (IC50 determination)). Details: CHO-K1 cells stably expressing recombinant receptor; antagonism of isoproterenol at EC90; cAMP readout.
Chain of Beta-3 Adrenergic Receptor (P13945 whole entry, species assumed): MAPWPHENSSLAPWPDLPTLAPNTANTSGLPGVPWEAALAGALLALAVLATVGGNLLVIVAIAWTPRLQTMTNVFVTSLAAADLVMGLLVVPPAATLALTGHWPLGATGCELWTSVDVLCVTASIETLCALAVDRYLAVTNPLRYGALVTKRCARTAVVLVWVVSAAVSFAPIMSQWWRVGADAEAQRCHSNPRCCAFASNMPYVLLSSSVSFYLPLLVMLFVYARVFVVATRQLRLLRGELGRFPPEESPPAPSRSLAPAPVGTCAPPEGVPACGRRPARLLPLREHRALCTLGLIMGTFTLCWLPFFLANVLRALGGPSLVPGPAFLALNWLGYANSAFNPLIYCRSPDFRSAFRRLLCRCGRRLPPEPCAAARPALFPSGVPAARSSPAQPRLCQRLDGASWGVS
Format: cell-based
Procedure, shortened: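 In this functional readout, recombinant CHO-K1 cells received compound, then isoproterenol at its EC90. After 1 h at room temperature, cAMP levels were determined by HTRF using an on-plate standard curve, and IC50 values were fitted.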

How did the pIC50 turn out when CCn1cc(S(=O)(=O)N2CCC3(CC2)C[C@@H](NC[C@H](O)COc2cccc(S(=O)(=O)C4CC4)c2)CO3)c(=O)c2cccc(C)c21 [Compound 315, 3-((R)-3-((S)-3-(3-(cyclopropylsulfonyl)phenoxy)-2-hydroxypropylamino)-1-oxa-8-azaspiro[4.5]decan-8-ylsulfonyl)-1-ethyl-8-methylquinolin-4(1H)-one] was run?
The pIC50 was 7.62.

How did the pIC50 turn out when O=S(=O)(c1cccc(OC[C@@H](O)CN[C@H]2COC3(CCN(S(=O)(=O)c4cnc5ccc(F)cc5c4O)CC3)C2)c1)C1CC1 [Compound 325, 3-((R)-3-((S)-3-(3-(cyclopropylsulfonyl)phenoxy)-2-hydroxypropylamino)-1-oxa-8-azaspiro[4.5]decan-8-ylsulfonyl)-6-fluoroquinolin-4-ol] was run?
The pIC50 was 7.47.

With CCn1cc(S(=O)(=O)N2CCC3(CC2)C[C@H](NC[C@H](O)COc2cccc(S(C)(=O)=O)c2)CO3)c(=O)c2ccccc21 [Compound 338, 1-ethyl-3-((S)-3-((S)-2-hydroxy-3-(3-(methylsulfonyl)phenoxy)propylamino)-1-oxa-8-azaspiro[4.5]decan-8-ylsulfonyl)quinolin-4(1H)-one] as the molecule, how does the pIC50 read?
The pIC50 was 7.49.

With CNCc1ccc(-c2cccc(S(=O)(=O)N3CCC4(CC3)CC(NC[C@H](O)COc3cccc(S(C)(=O)=O)c3)CO4)c2)cc1 (stereo partly drawn) [Compound 78, (2S)-1-(8-(4′-((methylamino)methyl)biphenyl-3-ylsulfonyl)-1-oxa-8-azaspiro[4.5]decan-3-ylamino)-3-(3-(methylsulfonyl)phenoxy)propan-2-ol] as the molecule, how does the pIC50 read?
The pIC50 was 7.38.

How did the pIC50 turn out when CS(=O)(=O)c1cccc(OC[C@@H](O)CNC2COC3(CCN(S(=O)(=O)c4cccc(Br)c4)CC3)C2)c1 (stereo partly drawn) [Compound 69, (2S)-1-(8-(3-bromophenylsulfonyl)-1-oxa-8-azaspiro[4.5]decan-3-ylamino)-3-(3-(methylsulfonyl)phenoxy)propan-2-ol] was run?
The pIC50 was 7.67.

With CN1CCN(C)c2ncc(S(=O)(=O)N3CCC4(CC3)C[C@@H](NC[C@H](O)COc3cccc(S(=O)(=O)C5(CO)CC5)c3)CO4)cc21 [Compound 222, (S)-1-((R)-8-(1,4-dimethyl-1,2,3,4-tetrahydropyrido[3,2-b]pyrazin-7-ylsulfonyl)-1-oxa-8-azaspiro[4.5]decan-3-ylamino)-3-(3-(1-(hydroxymethyl)cyclopropylsulfonyl)phenoxy)propan-2-ol] as the molecule, how does the pIC50 read?
Its pIC50 is 7.32.

O=S(=O)(CCC(F)(F)F)c1cccc(OC[C@@H](O)CNC2COC3(CCN(S(=O)(=O)c4ccc5ccccc5c4)CC3)C2)c1 (stereo partly drawn) [Compound 9, (2S)-1-(8-(naphthalen-2-ylsulfonyl)-1-oxa-8-azaspiro[4.5]decan-3-ylamino)-3-(3-(3,3,3-trifluoropropylsulfonyl)phenoxy)propan-2-ol] was tested. Which pIC50 did it give?
The pIC50 was 7.62.

CS(=O)(=O)Cc1cccc(OC[C@H](O)CNC2COC3(CCN(S(=O)(=O)c4ccc5ccccc5c4)CC3)C2)c1 (stereo partly drawn) [Compound 94, (2R)-1-(3-(methylsulfonylmethyl)phenoxy)-3-(8-(naphthalen-2-ylsulfonyl)-1-oxa-8-azaspiro[4.5]decan-3-ylamino)propan-2-ol] was tested. Which pIC50 did it give?
The pIC50 was 6.95.

O=S(=O)(CF)c1cccc(OC[C@@H](O)CNC2COC3(CCN(S(=O)(=O)c4ccc5ccccc5c4)CC3)C2)c1 (stereo partly drawn) [Compound 86, (2S)-1-(3-(fluoromethylsulfonyl)phenoxy)-3-(8-(naphthalen-2-ylsulfonyl)-1-oxa-8-azaspiro[4.5]decan-3-ylamino)propan-2-ol] was tested. Which pIC50 did it give?
Its pIC50 is 8.04.

With COc1ccc(S(=O)(=O)N2CCC3(CC2)C[C@@H](NC[C@H](O)COc2cccc(S(=O)(=O)C4(CO)CC4)c2)CO3)cc1Br [Compound 193, (S)-1-((R)-8-(3-bromo-4-methoxyphenylsulfonyl)-1-oxa-8-azaspiro[4.5]decan-3-ylamino)-3-(3-(1-(hydroxymethyl)cyclopropylsulfonyl)phenoxy)propan-2-ol] as the molecule, how does the pIC50 read?
Its pIC50 is 7.57.

With O=S(=O)(c1cncc(Br)c1)N1CCC2(CC1)C[C@H](NC[C@H](O)COc1cccc(S(=O)(=O)C3(CO)CC3)c1)CO2 [Compound 186, (S)-1-((S)-8-(5-bromopyridin-3-ylsulfonyl)-1-oxa-8-azaspiro[4.5]decan-3-ylamino)-3-(3-(1-(hydroxymethyl)cyclopropylsulfonyl)phenoxy)propan-2-ol] as the molecule, how does the pIC50 read?
The pIC50 was 7.10.

How did the pIC50 turn out when N#CCS(=O)(=O)c1cccc(OC[C@@H](O)CNC2COC3(CCN(S(=O)(=O)c4ccc5ccccc5c4)CC3)C2)c1 (stereo partly drawn) [Compound 12, 2-(3-((2S)-2-hydroxy-3-(8-(naphthalen-2-ylsulfonyl)-1-oxa-8-azaspiro[4.5]decan-3-ylamino)propoxy)phenylsulfonyl)acetonitrile] was run?
The pIC50 was 6.88.

With NCc1ccc(-c2ccc(F)c(S(=O)(=O)N3CCC4(CC3)C[C@H](NC[C@H](O)COc3cccc(S(=O)(=O)C5(CO)CC5)c3)CO4)c2)cc1 [Compound 162, (S)-1-((S)-8-(4′-(aminomethyl)-4-fluorobiphenyl-3-ylsulfonyl)-1-oxa-8-azaspiro[4.5]decan-3-ylamino)-3-(3-(1-(hydroxymethyl)cyclopropylsulfonyl)phenoxy)propan-2-ol] as the molecule, how does the pIC50 read?
The pIC50 was 7.53.

With CCNCc1ccc(-c2cccc(S(=O)(=O)N3CCC4(CC3)CC(NC[C@H](O)COc3cccc(S(C)(=O)=O)c3)CO4)c2)cc1 (stereo partly drawn) [Compound 79, (2S)-1-(8-(4′-((ethylamino)methyl)biphenyl-3-ylsulfonyl)-1-oxa-8-azaspiro[4.5]decan-3-ylamino)-3-(3-(methylsulfonyl)phenoxy)propan-2-ol] as the molecule, how does the pIC50 read?
The pIC50 was 7.37.

How did the pIC50 turn out when CS(=O)(=O)c1cccc(OC[C@@H](O)CNC2COC3(CCN(S(=O)(=O)c4cccc(-c5ccc(CN)cc5)c4)CC3)C2)c1 (stereo partly drawn) [Compound 41, (2S)-1-(8-(4′-(aminomethyl)biphenyl-3-ylsulfonyl)-1-oxa-8-azaspiro[4.5]decan-3-ylamino)-3-(3-(methylsulfonyl)phenoxy)propan-2-ol] was run?
Its pIC50 is 7.86.

With NCCNCc1ccc(-c2cccc(S(=O)(=O)N3CCC4(CC3)C[C@@H](NC[C@H](O)COc3cccc(S(=O)(=O)C5(CO)CC5)c3)CO4)c2)cc1 [Compound 270, (S)-1-((R)-8-(4′-((2-aminoethylamino)methyl)biphenyl-3-ylsulfonyl)-1-oxa-8-azaspiro[4.5]decan-3-ylamino)-3-(3-(1-(hydroxymethyl)cyclopropylsulfonyl)phenoxy)propan-2-ol] as the molecule, how does the pIC50 read?
Its pIC50 is 7.03.

O=S(=O)(CC1CC1)c1cccc(OC[C@@H](O)CNC2COC3(CCN(S(=O)(=O)c4ccc5ccccc5c4)CC3)C2)c1 (stereo partly drawn) [Compound 7, (2S)-1-(3-(cyclopropylmethylsulfonyl)phenoxy)-3-(8-(naphthalen-2-ylsulfonyl)-1-oxa-8-azaspiro[4.5]decan-3-ylamino)propan-2-ol] was tested. Which pIC50 did it give?
The pIC50 was 7.47.

How did the pIC50 turn out when CN1CCOc2ncc(S(=O)(=O)N3CCC4(CC3)C[C@@H](NC[C@H](O)COc3cccc(S(C)(=O)=O)c3)CO4)cc21 [Compound 152, (S)-1-((R)-8-(1-methyl-2,3-dihydro-1H-pyrido[2,3-b][1,4]oxazin-7-ylsulfonyl)-1-oxa-8-azaspiro[4.5]decan-3-ylamino)-3-(3-(methylsulfonyl)phenoxy)propan-2-ol] was run?
The pIC50 was 7.61.

With CC(C)S(=O)(=O)c1cccc(OC[C@@H](O)CN[C@H]2COC3(CCN(S(=O)(=O)c4cnc5c(c4)N(C)CCO5)CC3)C2)c1 [Compound 153, (S)-1-(3-(isopropylsulfonyl)phenoxy)-3-((R)-8-(1-methyl-2,3-dihydro-1H-pyrido[2,3-b][1,4]oxazin-7-ylsulfonyl)-1-oxa-8-azaspiro[4.5]decan-3-ylamino)propan-2-ol] as the molecule, how does the pIC50 read?
The pIC50 was 7.73.
